Molecular target: T1, b-Raf(V600E) (Homo sapiens, UniProt P15056, V600E)
T1 construct: made in house
Experiment: Raf/Mek Amplified Luminescence Proximity Homogeneous Assay (Alpha Screen), b-Raf(V600E)
Format: biochemical
Conditions: mutant b-Raf(V600E), read-out: mut-b-RAF (IC50 in uM)
Experimental: Assay buffer: 50 mM Tris, pH 7.5, 15 mM MgCl2, 0.01% BSA, 1 mM DTT Stop buffer: 60 mM EDTA, 0.01% Tween20 Bead buffer: 50 mM Tris, pH 7.5, 0.01% Tween20
b-Raf(V600E), active: Recombinant in-house material biotinylated Mek, kinase dead: Recombinant in-house material Alpha Screen detection kit PerkinElmer, #6760617R Anti phospho-MEK½ Cell signaling #9121 384 well assay plates: White Greiner plates, #781207
b-Raf(V600E) approximately 4 pM c-Raf approximately 4 nM biotinylated Mek, Kinase dead approximately 10 nM
Pre-incubation time with compounds 60 min at room temperature Reaction time 1 or 3 hours at room temperature
Raf and biotinylated Mek, kinase dead, were combined at 2× final concentrations in assay buffer (50 mM Tris, pH 7.5, 15 mM MgCl2, 0.01% BSA and 1 mM DTT) and dispensed 10 μl per well in assay plates (Greiner white 384 well assay plates #781207) containing 0.5 μl of 40× of a raf kinase inhibitor test compound diluted in 100% DMSO. The plate was incubated for 60 min at room temperature.
The Raf kinase activity reaction was started by the addition of 10 μl per well of 2×ATP diluted in assay buffer. After 3 hours (bRaf(V600E)) or 1 hour (c-Raf), the reactions were stopped with the addition of 10 μl of stop reagent (60 mM EDTA). Phosphorylated product was measured using a rabbit anti-p-MEK (Cell Signaling, #9121) antibody and the Alpha Screen IgG (Protein A) detection Kit (PerkinElmer #6760617R), by the addition of 30 μL to the well of a mixture of the antibody (1:2000 dilution) and detection beads (1:2000 dilution of both beads) in bead buffer (50 mM Tris, pH 7.5, 0.01% Tween20). The additions were carried out under dark conditions to protect the detection beads from light. A lid was placed on top of the plate and incubated for 1 hour at room temperature, then the luminescence was read on a PerkinElmer Envision instrument. The concentration of each compound for 50% inhibition (IC50) was calculated by non-linear regression using XL Fit data analysis software.
The Raf/Mek Amplified Luminescence Proximity Homogeneous Assay described was used to generate the luminescence and mutant b-Raf(V600E) IC50 data for selected Raf Kinase Inhibitors shown in Table 1 above.

T1 sequence (P15056 whole entry V600E): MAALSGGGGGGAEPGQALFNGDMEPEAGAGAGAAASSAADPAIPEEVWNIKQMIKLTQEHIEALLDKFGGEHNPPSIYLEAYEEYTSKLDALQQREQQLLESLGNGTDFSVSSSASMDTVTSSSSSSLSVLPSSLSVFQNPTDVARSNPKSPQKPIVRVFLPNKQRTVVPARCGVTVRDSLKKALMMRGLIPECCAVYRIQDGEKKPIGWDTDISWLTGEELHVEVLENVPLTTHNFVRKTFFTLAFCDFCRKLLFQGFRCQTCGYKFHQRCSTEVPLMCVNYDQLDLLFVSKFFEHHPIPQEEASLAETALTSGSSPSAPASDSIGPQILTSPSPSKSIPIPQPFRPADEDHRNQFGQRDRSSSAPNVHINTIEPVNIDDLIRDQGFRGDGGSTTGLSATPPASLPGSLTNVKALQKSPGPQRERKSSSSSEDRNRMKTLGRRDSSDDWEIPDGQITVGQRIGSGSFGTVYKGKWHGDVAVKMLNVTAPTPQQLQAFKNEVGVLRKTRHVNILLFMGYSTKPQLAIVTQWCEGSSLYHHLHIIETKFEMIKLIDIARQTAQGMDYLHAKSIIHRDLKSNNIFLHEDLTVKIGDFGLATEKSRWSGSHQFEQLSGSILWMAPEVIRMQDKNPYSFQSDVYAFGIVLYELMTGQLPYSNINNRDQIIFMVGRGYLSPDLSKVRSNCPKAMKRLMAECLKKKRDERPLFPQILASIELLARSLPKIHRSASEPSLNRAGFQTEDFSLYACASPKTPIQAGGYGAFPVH

Structure (SMILES) | IC50 [µM]
COc1cc(-c2[nH]c(-c3ccccc3)nc2-c2ccnc(N[C@@H]3CCCNC3)n2)cnc1N [Compound 65, (R)-4-(5-(6-amino-5-methoxypyridin-3-yl)-2-phenyl-1H-imidazol-4-yl)-N-(piperidin-3-yl)pyrimidin-2-amine] | 0.0599
COc1cc(-c2[nH]c(-c3ccccc3)nc2-c2ccnc(NCCNC(C)=O)n2)cnc1N [Compound 67, N-(2-(4-(5-(6-amino-5-methoxypyridin-3-yl)-2-phenyl-1H-imidazol-4-yl)pyrimidin-2-ylamino)ethyl)acetamide] | 0.0001
COCC(=O)NCCNc1nccc(-c2nc(-c3ccccc3)[nH]c2-c2cnc(N)c(OC)c2)n1 [Compound 68, N-(2-(4-(5-(6-amino-5-methoxypyridin-3-yl)-2-phenyl-1H-imidazol-4-yl)pyrimidin-2-ylamino)ethyl)-2-methoxyacetamide] | 0.0001
COc1ccc(-c2nc(-c3ccncc3)c(-c3cnc(N)c(OC)c3)[nH]2)cc1 [Compound 69, 3-methoxy-5-(2-(4-methoxyphenyl)-4-(pyridin-4-yl)-1H-imidazol-5-yl)pyridin-2-amine] | 0.0003
COc1cc(-c2[nH]c(-c3ccccc3)nc2-c2ccnc(NCCNS(=O)(=O)c3ccc(Cl)cc3)n2)cnc1N [Compound 70, N-(2-(4-(5-(6-amino-5-methoxypyridin-3-yl)-2-phenyl-1H-imidazol-4-yl)pyrimidin-2-ylamino)ethyl)-4-chlorobenzenesulfonamide] | 0.0004
COc1cc(-c2[nH]c(-c3ccc(O)cc3)nc2-c2ccncc2)cnc1N [Compound 71, 4-(5-(6-amino-5-methoxypyridin-3-yl)-4-(pyridin-4-yl)-1H-imidazol-2-yl)phenol] | 0.0003
COc1cc(-c2nc(-c3ccccc3)[nH]c2-c2ccnc(NC3CC3)n2)cnc1N [Compound 72, 4-(4-(6-amino-5-methoxypyridin-3-yl)-2-phenyl-1H-imidazol-5-yl)-N-cyclopropylpyrimidin-2-amine] | 0.0016
COc1cc(-c2nc(-c3ccccc3)[nH]c2-c2ccnc(N)n2)cnc1N [Compound 73, 4-(4-(6-amino-5-methoxypyridin-3-yl)-2-phenyl-1H-imidazol-5-yl)pyrimidin-2-amine] | 0.0011
COc1cc(-c2nc(-c3ccccc3)[nH]c2-c2ccnc(NC[C@H](C)O)n2)cnc1N [Compound 74, (S)-1-(4-(4-(6-amino-5-methoxypyridin-3-yl)-2-phenyl-1H-imidazol-5-yl)pyrimidin-2-ylamino)propan-2-ol] | 0.0006
COc1cc(-c2nc(-c3ccccc3)[nH]c2-c2ccnc(NC[C@@H](C)O)n2)cnc1N [Compound 75, (R)-1-(4-(4-(6-amino-5-methoxypyridin-3-yl)-2-phenyl-1H-imidazol-5-yl)pyrimidin-2-ylamino)propan-2-ol] | 0.0011
COc1cc(-c2[nH]c(C3CC3)nc2-c2ccncc2)cnc1N [Compound 76, 5-(2-cyclopropyl-4-(pyridin-4-yl)-1H-imidazol-5-yl)-3-methoxypyridin-2-amine] | 0.0015
COc1nc(-c2sc(-c3ccccc3)nc2-c2ccncc2)cnc1N [Compound 77, 3-methoxy-5-(2-phenyl-4-(pyridin-4-yl)thiazol-5-yl)pyrazin-2-amine] | 0.089
COc1cc(-c2nc(-c3cc(F)cc(F)c3)[nH]c2-c2ccncc2)cnc1N [Compound 78, 5-(2-(3,5-difluorophenyl)-5-(pyridin-4-yl)-1H-imidazol-4-yl)-3-methoxypyridin-2-amine] | 0.001
COc1cc(-c2nc(-c3ccc(OC(F)(F)F)cc3)[nH]c2-c2ccncc2)cnc1N [Compound 79, 3-methoxy-5-(5-(pyridin-4-yl)-2-(4-(trifluoromethoxy)phenyl)-1H-imidazol-4-yl)pyridin-2-amine] | 0.002
COc1cc(-c2[nH]c(-c3ccccc3)nc2C2=CCOCC2)cnc1N [Compound 80, 5-(4-(3,6-dihydro-2H-pyran-4-yl)-2-phenyl-1H-imidazol-5-yl)-3-methoxypyridin-2-amine] | 0.038
COc1cc(-c2nc(-c3ccccc3)[nH]c2-c2ccnc(NC(C)=O)c2)cnc1N [Compound 82, N-(4-(4-(6-amino-5-methoxypyridin-3-yl)-2-phenyl-1H-imidazol-5-yl)pyridin-2-yl)acetamide] | 0.002

Structure (SMILES) | IC50 [µM]
CNc1ncc(-c2nc(-c3ccccc3)[nH]c2-c2ccncc2)cn1 [Compound 83, N-methyl-5-(2-phenyl-5-(pyridin-4-yl)-1H-imidazol-4-yl)pyrimidin-2-amine] | 0.197
FC(F)(F)c1ccc(-c2nc(-c3ccncc3)c(-c3ccncc3)[nH]2)cc1 [Compound 84, 4,4′-(2-(4-(trifluoromethyl)phenyl)-1H-imidazole-4,5-diyl)dipyridine] | 0.229
COc1cc(-c2[nH]c(-c3ccccc3)nc2-c2ccn[nH]2)cnc1N [Compound 86, 3-methoxy-5-(2-phenyl-4-(1H-pyrazol-5-yl)-1H-imidazol-5-yl)pyridin-2-amine] | 0.537
N#Cc1cc(-c2[nH]c(-c3ccccc3)nc2-c2ccncc2)cnc1N [Compound 87, 2-amino-5-(2-phenyl-4-(pyridin-4-yl)-1H-imidazol-5-yl)nicotinonitrile] | 0.391
COc1cc(-c2[nH]c(-c3ccccc3)nc2-c2ccnc(NCCNS(=O)(=O)C3CC3)n2)cnc1N [Compound 88, N-(2-(4-(5-(6-amino-5-methoxypyridin-3-yl)-2-phenyl-1H-imidazol-4-yl)pyrimidin-2-ylamino)ethyl)cyclopro-panesulfonamide] | 0.0001
COc1cc(-c2oc(-c3ccccc3)nc2-c2ccncc2)cnc1N [Compound 89, 3-methoxy-5-(2-phenyl-4-(pyridin-4-yl)oxazol-5-yl)pyridin-2-amine] | 0.0137
COc1nc(-c2oc(-c3ccccc3)nc2-c2ccncc2)cnc1N [Compound 90, 3-methoxy-5-(2-phenyl-4-(pyridin-4-yl)oxazol-5-yl)pyrazin-2-amine] | 0.113
COc1cc(-c2[nH]c(-c3ccccc3)nc2-c2ccnc(N[C@@H]3CCCN(S(=O)(=O)C4CC4)C3)n2)cnc1N [Compound 91, (R)-4-(5-(6-amino-5-methoxypyridin-3-yl)-2-phenyl-1H-imidazol-4-yl)-N-(1-(cyclopropylsulfonyl)piper-idin-3-yl)pyrimidin-2-amine] | 0.0044
COc1cc(-c2nc(-c3ccccc3)oc2-c2ccncc2)cnc1N [Compound 92, 3-methoxy-5-(2-phenyl-5-(pyridin-4-yl)oxazol-4-yl)pyridin-2-amine] | 0.0003
COc1cc(-c2[nH]c(-c3ccc(F)cc3)nc2-c2ccncc2F)cnc1N [Compound 93, 5-(2-(4-fluorophenyl)-4-(3-fluoropyridin-4-yl)-1H-imidazol-5-yl)-3-methoxypyridin-2-amine] | 0.0038
COc1cc(-c2[nH]c(-c3ccc(F)cc3)nc2-c2ccncc2Cl)cnc1N [Compound 94, 5-(4-(3-chloropyridin-4-yl)-2-(4-fluorophenyl)-1H-imidazol-5-yl)-3-methoxypyridin-2-amine] | 0.0606
COc1cc(-c2[nH]c(-c3ccc(F)cc3)nc2-c2ccnc(NC3CCN(S(=O)(=O)C4CC4)CC3)n2)cnc1N [Compound 95, 4-(5-(6-amino-5-methoxypyridin-3-yl)-2-(4-fluorophenyl)-1H-imidazol-4-yl)-N-(1-(cyclopropylsulfonyl)piper-idin-4-yl)pyrimidin-2-amine] | 0.0025
COc1cc(-c2[nH]c(-c3ccc(F)cc3)nc2-c2cn[nH]c2)cnc1N [Compound 96, 5-(2-(4-fluorophenyl)-4-(1H-pyrazol-4-yl)-1H-imidazol-5-yl)-3-methoxypyridin-2-amine] | 0.0321
COCC(=O)N1CCC[C@@H](Nc2nccc(-c3nc(-c4ccc(C(F)(F)F)cc4)[nH]c3-c3cnc(N)c(OC)c3)n2)C1 [Compound 97, (R)-1-(3-(4-(5-(6-amino-5-methoxypyridin-3-yl)-2-(4-(trifluoromethyl)phenyl)-1H-imidazol-4-yl)pyrimidin-2-ylamino)piperidin-1-yl)-2-methoxyethanone] | 0.031
COc1cc(-c2[nH]c(-c3ccc(F)cc3)nc2-c2ccnc(NCCNS(=O)(=O)C3CC3)n2)cnc1N [Compound 98, N-(2-(4-(5-(6-amino-5-methoxypyridin-3-yl)-2-(4-fluorophenyl)-1H-imidazol-4-yl)pyrimidin-2-ylamino)ethyl)cyclopro-panesulfonamide] | 0.0001

Reference: patent publication US20100003246A1, “Novel heterocyclic compounds and uses therof” (priority 2008, published 2010)
